Test [1] relates to Diaprepes abbreviatus. The test can be described thus: Antifeedant activity against Diaprepes abbreviatus in compound treated healthy romaine lettuce plants assessed as area consumed from leaf disk at 5.6 ml/l by No-choice tests (1.40 +/- 0.1 cm'2). The test is classed as functional.
The test system of test [2] is Diaprepes abbreviatus. The experiment in a line: Antifeedant activity against Diaprepes abbreviatus in compound treated healthy romaine lettuce plants assessed as area consumed from leaf disk at 5.6 ml/l by choice tests (1.45 +/- 0.1 cm'2). In kind it is functional.
The test system of test [3] is Schistocerca americana. The test can be described thus: Antifeedant activity against Schistocerca americana in compound treated healthy romaine lettuce plants assessed as area consumed from leaf disk at 5.6 ml/l by No-choice tests (3.10 +/- 0.1 cm'2). In kind it is functional.
The subject of test [4] is Schistocerca americana. The test can be described thus: Antifeedant activity against Schistocerca americana in compound treated healthy romaine lettuce plants assessed as area consumed from leaf disk at 5.6 ml/l by choice tests (2.62 +/- 0.1 cm'2). In kind it is functional.
Test [5] relates to Schistocerca americana. The experiment in a line: Antifeedant activity against Schistocerca americana in compound treated Citrus paradisi MacFad (Rutaceae) potted plants assessed as area consumed from leaf disk measured under different 12 hr sunlight exposure at 18 g/l by No-choice tests. The test is classed as functional, organism-based.
The subject of test [6] is Schistocerca americana. The test can be described thus: Antifeedant activity against Schistocerca americana in compound treated Citrus paradisi MacFad (Rutaceae) potted plants assessed as area consumed from leaf disk measured under different 8 hr sunlight exposure at 18 g/l by No-choice tests. The test is classed as functional, organism-based.
Test [7] relates to Schistocerca americana. The experiment in a line: Antifeedant activity against Schistocerca americana in compound treated Citrus paradisi MacFad (Rutaceae) potted plants assessed as area consumed from leaf disk measured under different 4 hr sunlight exposure at 18 g/l by No-choice tests. The test is classed as functional, organism-based.
Test [8] has as its system Schistocerca americana. The experiment in a line: Antifeedant activity against Schistocerca americana in compound treated Citrus paradisi MacFad (Rutaceae) potted plants assessed as area consumed from leaf disk measured under 4 hr sunlight exposure at 18 g/l by No-choice tests. The test is classed as functional, organism-based.
In test [9] the test system is Schistocerca americana. The test can be described thus: Antifeedant activity against Schistocerca americana in compound treated Citrus paradisi MacFad (Rutaceae) potted plants assessed as area consumed from leaf disk measured under 4 hr sunlight exposure at 5.6 ml/l by No-choice tests. In kind it is functional, organism-based.
Test [10] has as its system Schistocerca americana. The test can be described thus: Antifeedant activity against Schistocerca americana in compound treated Citrus paradisi MacFad (Rutaceae) potted plants assessed as area consumed from leaf disk measured under 8 hr sunlight exposure at 18 g/l by No-choice tests. In kind it is functional, organism-based.
The subject of test [11] is Schistocerca americana. The test can be described thus: Antifeedant activity against Schistocerca americana in compound treated Citrus paradisi MacFad (Rutaceae) potted plants assessed as area consumed from leaf disk measured under 8 hr sunlight exposure at 5.6 ml/l by No-choice tests. The test is classed as functional, organism-based.
Test [12] relates to Schistocerca americana. The test can be described thus: Antifeedant activity against Schistocerca americana in compound treated healthy romaine lettuce plants assessed as area consumed from leaf disk at 31.3 ml/l by choice tests (1.79 +/- 0.2 cm'2). In kind it is functional.
For test [13], the system named is Diaprepes abbreviatus. The test can be described thus: Antifeedant activity against Diaprepes abbreviatus in compound treated healthy romaine lettuce plants assessed as area consumed from leaf disk at 31.3 ml/l by choice tests (1.39 +/- 0.1 cm'2). In kind it is functional.
For test [14], the system named is Diaprepes abbreviatus. The test can be described thus: Antifeedant activity against Diaprepes abbreviatus in compound treated healthy romaine lettuce plants assessed as area consumed from leaf disk at 48 g/l by No-choice tests (2.51 +/- 0.2 cm'2). The test is classed as functional.
The subject of test [15] is Diaprepes abbreviatus. The experiment in a line: Antifeedant activity against Diaprepes abbreviatus in compound treated healthy romaine lettuce plants assessed as area consumed from leaf disk at 48 g/l by choice tests (1.47 +/- 0.1 cm'2). The test is classed as functional.
Test [16] has as its system Schistocerca americana. The experiment in a line: Antifeedant activity against Schistocerca americana in compound treated healthy romaine lettuce plants assessed as area consumed from leaf disk at 48 g/l by choice tests (1.88 +/- 0.2 cm'2). In kind it is functional.
Test [17] has as its system Diaprepes abbreviatus. The experiment in a line: Antifeedant activity against Diaprepes abbreviatus in compound treated Citrus paradisi MacFad (Rutaceae) potted plants assessed as reduction in leaf consumption measured under 12 hr sunlight exposure at 5.6 ml/l by No-choice tests. The test is classed as functional, organism-based.
Test [18] deals with Diaprepes abbreviatus. The experiment in a line: Antifeedant activity against Diaprepes abbreviatus in compound treated Citrus paradisi MacFad (Rutaceae) potted plants assessed as reduction in leaf consumption measured under 8 hr sunlight exposure at 5.6 ml/l by No-choice tests. The test is classed as functional, organism-based.
For test [19], the system named is Diaprepes abbreviatus. The test can be described thus: Antifeedant activity against Diaprepes abbreviatus in compound treated Citrus paradisi MacFad (Rutaceae) potted plants assessed as reduction in leaf consumption measured under 4 hr sunlight exposure at 5.6 ml/l by No-choice tests. In kind it is functional, organism-based.
Test [20] has as its system Diaprepes abbreviatus. The experiment in a line: Antifeedant activity against Diaprepes abbreviatus in compound treated healthy romaine lettuce plants assessed as area consumed from leaf disk at 18 g/l by No-choice tests (2.48 +/- 0.1 cm'2). The test is classed as functional.
The subject of test [21] is Diaprepes abbreviatus. The test can be described thus: Antifeedant activity against Diaprepes abbreviatus in compound treated healthy romaine lettuce plants assessed as area consumed from leaf disk at 18 g/l by choice tests (1.19 +/- 0.1 cm'2). In kind it is functional.
Test [22] has as its system Schistocerca americana. The experiment in a line: Antifeedant activity against Schistocerca americana in compound treated healthy romaine lettuce plants assessed as area consumed from leaf disk at 18 g/l by No-choice tests (3.14 +/- 0.1 cm'2). In kind it is functional.
Test [23] concerns Schistocerca americana. The test can be described thus: Antifeedant activity against Schistocerca americana in compound treated healthy romaine lettuce plants assessed as area consumed from leaf disk at 18 g/l by choice tests (2.28 +/- 0.1 cm'2). The test is classed as functional.
Test [24] relates to Diaprepes abbreviatus. The test can be described thus: Antifeedant activity against Diaprepes abbreviatus in compound treated Citrus paradisi MacFad (Rutaceae) potted plants assessed as reduction in leaf consumption measured under 12 hr sunlight exposure at 18 g/l by No-choice tests. The test is classed as functional, organism-based.
The test system of test [25] is Diaprepes abbreviatus. The test can be described thus: Antifeedant activity against Diaprepes abbreviatus in compound treated Citrus paradisi MacFad (Rutaceae) potted plants assessed as reduction in leaf consumption measured under 8 hr sunlight exposure at 18 g/l by No-choice tests. The test is classed as functional, organism-based.
The test system of test [26] is Diaprepes abbreviatus. The test can be described thus: Antifeedant activity against Diaprepes abbreviatus in compound treated Citrus paradisi MacFad (Rutaceae) potted plants assessed as reduction in leaf consumption measured under 4 hr sunlight exposure at 18 g/l by No-choice tests. The test is classed as functional, organism-based.

Molecules are shown by their SMILES. Calls of active or inactive are those of the source. No cut-off for these calls is given here.

In the case of `C/C=C(\C)C(=O)O[C@H]1C[C@@H](OC(C)=O)[C@@]2(C(=O)OC)CO[C@H]3[C@@H](O)[C@@](C)([C@]45O[C@@]4(C)[C@@H]4C[C@H]5O[C@@H]5OC=C[C@@]54O)[C@H]4[C@]1(CO[C@]4(O)C(=O)OC)[C@@H]32` [AZADIRACHTIN A], the Activity in [1] is on record as 1.8 cm2; in test [2], 0.74 cm2; in test [3], 0.29 cm2; in test [4], 0.4 cm2. Also, the outcome in [5], in test [6], in test [7], in test [8] and in [9] was inactive. In addition, the result in [10] and in test [11] was Active.
As to `COc1cc(CNC(=O)CCCC/C=C/C(C)C)ccc1O` [CAPSAICIN], the Activity in test [12] is 1.08 cm2; in [13] it was 1.02 cm2.
Consider `C=C(C)[C@H]1Cc2c(ccc3c2O[C@@H]2COc4cc(OC)c(OC)cc4[C@@H]2C3=O)O1` [ROTENONE], for which the results for the Activity in [14], in [15] and in [16] were 2.42 cm2, 0.24 cm2 and 1.64 cm2, respectively. For the same compound, the outcome in test [17], in [18] and in [19] was inactive.
For the compound `CC(C)[C@@]1(O)[C@@H](OC(=O)c2cc[nH]c2)[C@@]2(O)[C@]3(C)C[C@@]4(O)O[C@@]5([C@H](O)[C@@H](C)CC[C@]35O)[C@@]2(O)[C@@]41C` [RYANODINE], the Activity in [20] came to 1.46 cm2; in [21] it was 0.48 cm2; in [22], 2.35 cm2; in test [23] it was 0.76 cm2. Further, the result in [24], in [25], in test [26], in test [5], in test [6] and in test [7] was inactive.

Values taken from ChEMBL document CHEMBL3046692, “Antifeedant effect of commercial chemicals and plant extracts against Schistocerca americana (Orthoptera: Acrididae) and Diaprepes abbreviatus (Coleoptera: Curculionidae)” (2011).
